Results from patent US20250353845A1, “THYROID HORMONE BETA RECEPTOR AGONIST, CRYSTAL FORM, PREPARATION METHOD AND USE” (KPC PHARMACEUTICALS, INC, priority 2022, published 2025).
Read-outs that look alike come from different tables or passages of the source. Values belong to the compound of their own block, whether it stands above or below them.

Columns and labels:
[1] = Pharmacokinetic evaluation in rats (liver-blood ratio); type: in vivo, CD rats
Experimental: To determine the pharmacokinetic parameters of the compound represented by formula (I) in rats.
The animals were given the compound at a dose of 5 mg/kg at a concentration of 0.5 mg/mL. Animals were cross-collected for plasma samples at 2, 6 and 10 h after administration. The drug concentration in the plasma samples was determined by LC-MS/MS method, and the kinetic parameters of the test drugs obtained were found in Table 25: […]

[2] = molecular target: T1, thyroid receptor β (THRβ) (Homo sapiens, UniProt P10828); assay: Cytological activity test of thyroid receptor β (luciferase reporter gene in HEK293T cells); type: cell-based; conditions: read-out: EC50 of THR β in vitro cell activity
T1 construct: expressed in transfected cells; host or cells: HEK293T
T1 sequence (P10828 217-461 limits assumed): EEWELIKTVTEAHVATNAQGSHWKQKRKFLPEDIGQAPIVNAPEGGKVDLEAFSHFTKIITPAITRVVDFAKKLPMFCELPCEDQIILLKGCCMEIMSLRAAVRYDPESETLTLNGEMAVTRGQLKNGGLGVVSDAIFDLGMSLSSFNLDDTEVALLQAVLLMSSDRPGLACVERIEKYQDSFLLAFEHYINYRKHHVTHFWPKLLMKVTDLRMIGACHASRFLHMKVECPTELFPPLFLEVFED
Excerpt: In this study, the fluorescence reporter gene experiment method was used to evaluate the excitatory effects of the two compounds to be tested on THR β target.
PGL4.35 [luc2P/9XGAL4UAS/Hygro] contains nine GALA-UAS repeat sequences (upstream activation sequences). This sequence drives the transcription of luciferase reporter gene luc2P, in response to the binding of the fusion protein containing Gal4 DNA binding domain with the ligand binding domain of thyroid receptor β (THR β) in pBIND THRβ vector. Stimulation on THRβ by the test sample will lead to the increase of luminescence signal.
The positive compound was dissolved in DMSO to prepare a 5 mM stock solution, and then diluted to a 0.5 mM stock solution. All compounds were dissolved in DMSO and stored in a refrigerator at −20° C. […]
2) HEK293T cells were cultured according to ATCC standard, and the cells were tested in exponential growth period. […] The cells were collected and counted. […]
5) The Britelite plus detection reagent was placed at room temperature. […] Envision was used to detect the luminescence value.
6) Agonism percentage is calculated as follows:
[formula] • RLU: Resulting Luminescence • RLUpositive control: average value of luminescence of all positive control holes in the whole plate. • RLUnegative control: average value of luminescence of all negative control holes in the whole plate. […]

[3] = molecular target: thyroid hormone receptor β (THR β) (Homo sapiens, UniProt P10828); assay: In vitro enzyme activity test of thyroid receptor β (TR-FRET, binding of THRβ LBD with co-activating peptide SRC2-2); type: biochemical
Experimental: Time-resolved fluorescence resonance energy transfer (TR-FRET) experimental method was used to evaluate the agonist activity in vitro of the compounds to be tested through the binding of thyroid hormone receptor β (THR β) with its co-activating peptide SRC2-2.
GST tag was fused to THR β ligand binding domain (THR β LBD), and its co-activating peptide SRC2-2 was biotinylated. The binding capacity of THR β LBD to SRC2-2 was determined by detecting the tightly bound Europium-labeled anti-GST antibody and Streptavidin labeled with D2 with TR-FRET.
1) the compounds to be tested were dissolved in DMSO to prepare a 30 mM stock solution that could be stored in a dryer at room temperature for three months. If it is stored for a long time, it will be placed in a refrigerator at −20° C.
The activity rate is calculated as follows: […]
Ratio valuepositive control: average value of the ratios of all positive control holes in the whole plate.
Ratio valuenegative control: average value of the ratios of all negative control holes in the whole plate.
The EC50 (half excited concentration) of the compound was obtained by using the following nonlinear fitting formula.
X: log value of compound concentration; Y: activity rate of compound.

[4] = Hygroscopicity of crystalline form A by dynamic vapor sorption (DVS); type: physicochemical; conditions: 25° C. and 80% RH
Experimental: Instrument model: TA Instruments Q5000 SA dynamic moisture adsorption instrument.
Test conditions: 1 mg to 10 mg sample was weighed and placed in a DVS sample tray for testing.
The detailed DVS parameters were as follows: temperature: 25° C., balance: dm/dt=0.01%/min for 15.00 min, drying: 90 min at 0% RH, RH (%) test gradient: 10% RH (%), test gradient range: 0%-80%-0%.
The hygroscopicity evaluation is classified as follows:
Experimental material: TA Instruments Q5000 SA dynamic moisture adsorption instrument
Experimental method: 1 mg to 10 mg of sample was weighted and placed in a DVS sample tray for testing.

[5] = Solid stability test of crystalline form A; type: physicochemical; conditions: open, 10 days
Excerpt: […] Samples in duplicate were placed under each condition, and the samples for XRPD detection and melting points were placed separately. Samples placed under different conditions were sampled for XRPD detection at the planned test end point, and the test results were compared with the initial test results at Day 0.

Chain of thyroid hormone receptor β (THR β) (P19793 whole entry partner, other chains not shown, the tested form may be a part): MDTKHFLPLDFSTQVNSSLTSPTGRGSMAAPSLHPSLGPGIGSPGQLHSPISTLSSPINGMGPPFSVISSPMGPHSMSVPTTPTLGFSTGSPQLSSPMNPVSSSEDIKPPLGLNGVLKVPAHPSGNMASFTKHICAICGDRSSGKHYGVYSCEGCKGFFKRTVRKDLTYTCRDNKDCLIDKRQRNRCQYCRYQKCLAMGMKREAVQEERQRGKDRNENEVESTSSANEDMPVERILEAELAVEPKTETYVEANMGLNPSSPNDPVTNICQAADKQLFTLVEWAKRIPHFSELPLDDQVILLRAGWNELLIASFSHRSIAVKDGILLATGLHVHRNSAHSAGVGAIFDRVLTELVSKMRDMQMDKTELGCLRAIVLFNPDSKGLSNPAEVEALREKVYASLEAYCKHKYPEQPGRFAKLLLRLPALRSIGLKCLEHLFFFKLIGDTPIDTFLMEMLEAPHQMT

Kp at 2 h ([1]; male, CD, liver/plasma, rat, PO, 5.0 mg/kg, 2 h, read-out: L/P concentration ratio): 7.7 | Kp at 6 h ([1]; male, CD, liver/plasma, rat, PO, 5.0 mg/kg, 6 h, read-out: L/P concentration ratio): 22.1 | Kp at 10 h ([1]; male, CD, liver/plasma, rat, PO, 5.0 mg/kg, 10 h, read-out: L/P concentration ratio): 23.6 | concentration at 2 h ([1]; male, CD, liver, rat, PO, 5.0 mg/kg, 2 h, read-out: Liver drug concentration L): 1180 ng/g | concentration at 6 h ([1]; male, CD, liver, rat, PO, 5.0 mg/kg, 6 h, read-out: Liver drug concentration L): 746 ng/g | concentration at 10 h ([1]; male, CD, liver, rat, PO, 5.0 mg/kg, 10 h, read-out: Liver drug concentration L): 238 ng/g | concentration at 2 h ([1]; male, CD, plasma, rat, PO, 5.0 mg/kg, 2 h, read-out: Blood drug concentration P): 153 ng/mL | concentration at 6 h ([1]; male, CD, plasma, rat, PO, 5.0 mg/kg, 6 h, read-out: Blood drug concentration P): 33.8 ng/mL | concentration at 10 h ([1]; male, CD, plasma, rat, PO, 5.0 mg/kg, 10 h, read-out: Blood drug concentration P): 10.1 ng/mL | half-life ([1]; male, CD, plasma, rat, PO, 5.0 mg/kg, read-out: T½ (converted)): 3.7 h | blood drug concentration ([1]; rats): low | liver drug concentration ([1]; rats): relatively high | liver targeting ([1]; rats): good liver targeting properties | EC50 [2]: 214 nM | EC50 [3]: 46 nM
Structure (SMILES): C[C@@H]1CCc2c(Oc3c(Cl)cc(-n4nc(C#N)c(=O)[nH]c4=O)cc3Cl)ccc(=O)n21 [Compound represented by formula (I)]
liver targeting (conclusion) ([1]; rat, PO, 5.0 mg/kg): Conclusion: The blood drug concentration of the compound represented by formula (I) in rats was relatively low, and the liver drug concentration was relatively high, so the compound represented by formula (I) has good liver targeting.

hygroscopicity classification [4]: slight hygroscopicity | hygroscopic weight gain ΔW ([4]; DVS): 0.6% | Crystalline form (XRPD) after storage ([5]; 25° C./65% RH): Crystalline form A | Crystalline form (XRPD) after storage ([5]; 25° C./85% RH): Crystalline form A | Crystalline form (XRPD) after storage ([5]; 40° C./75% RH): Crystalline form A | Crystalline form (XRPD) after storage ([5]; 50° C.): Crystalline form A
Structure (SMILES): C[C@@H]1CCc2c(Oc3c(Cl)cc(-n4nc(C#N)c(=O)[nH]c4=O)cc3Cl)ccc(=O)n21 [crystalline form A]
